Source: paper PMC3390782 (Angewandte Chemie (International Ed. in English), 2012)
Converted amounts (≈) assume the structure as drawn.

Key:
S. aureus NorA = experiment: MIC, antibacterial activity; format: cell-based
MRSA = experiment: MIC, antibacterial activity; format: cell-based, Staphylococcus aureus; details: strain C, Gram-positive
[1] = system: S. pyogenes serotype M12 (strain MGAS9429); experiment: MIC, antibacterial activity; format: cell-based
S. mutans UA159 [2] = experiment: MIC, antibacterial activity; format: cell-based
[3] = system: B. subtilis 168 with AAC(6')/APH(2”)-pRB374; experiment: MIC, antibacterial activity; format: cell-based; details: strain G, Gram-positive
[4] = system: B. anthracis 34F2 Sterne strain; format: cell-based; details: strain I, Gram-positive
VRE = experiment: MIC, antibacterial activity; format: cell-based, Enterococcus; details: strain J, Gram-positive
E. faecalis ATCC29212 = experiment: MIC, antibacterial activity; format: cell-based
[5] = system: L. monocyfogenes ATCC19115; experiment: MIC, antibacterial activity; format: cell-based, L. monocytogenes; details: strain L, Gram-positive
E. coli BL21 (DE3) = experiment: MIC, antibacterial activity; format: cell-based
[6] = system: E coli BL21 (DE3) with pET22b; experiment: MIC, antibacterial activity; format: cell-based
[7] = system: E. coli BL21 (DE3) with AAC(6')/APH(2”)-pET22b; experiment: MIC, antibacterial activity; format: cell-based
[8] = system: E. coli BL21 (DE3) with AAC(3)-IV-lnt-pET19b-pps; experiment: MIC, antibacterial activity; format: cell-based
[9] = system: E. coli BL21 (DE3) with Eis; experiment: MIC, antibacterial activity; format: cell-based
E. coli TolC = experiment: MIC, antibacterial activity; format: cell-based
E. coli MC1061 = experiment: MIC, antibacterial activity; format: cell-based
S. enterica ATCC14028 = experiment: MIC, antibacterial activity; format: cell-based; details: strain U, Gram-negative
S. mutans UA159 [10] = experiment: Time of kill assay; format: cell-based; details: at MIC (4e 2.3 μg/mL, TOB 75 μg/mL); after 5 hours of incubation
S. pyogenes = experiment: Time of kill assay; format: cell-based; details: at MIC (4e 2.3 μg/mL, TOB 18.8 μg/mL); after 3 hours of incubation
[11] = system: B. subtilis with constitutive YFP expression (PY79); experiment: Fluorescence microscopy of YFP-expressing bacteria; format: cell-based
rat RBCs = experiment: Hemolysis assay; details: 1 h at 37 °C
human RBCs = experiment: Hemolysis assay; details: 1 h at 37 °C
S. epidermidis AJCCM228 = experiment: MIC, antibacterial activity; format: cell-based
B. subtilis 168 = experiment: MIC, antibacterial activity; format: cell-based; details: strain F, Gram-positive
B. cereus ATCC11778 = experiment: MIC, antibacterial activity; format: cell-based; details: strain H, Gram-positive
[12] = system: Shigella clinical isolate 6831; experiment: MIC, antibacterial activity; format: cell-based
[13] = system: luciferase translation in lysates of E. coli; details: read-out: IC50, inhibition of luciferase translation; cited from earlier work

| SMILES | MIC (S. aureus NorA; strain B, Gram-positive) [µg/mL] | MIC (MRSA) [µg/mL] | MIC ([1]; strain D, Gram-positive) [µg/mL] | MIC (S. mutans UA159 [2]; strain E, Gram-positive) [µg/mL] | MIC [3] [µg/mL] | MIC [4] [µg/mL] | MIC (VRE) [µg/mL] | MIC (E. faecalis ATCC29212; strain K, Gram-positive) [µg/mL] | MIC [5] [µg/mL] | MIC (E. coli BL21 (DE3); strain M, Gram-negative) [µg/mL] | MIC ([6]; strain N, Gram-negative) [µg/mL] | MIC ([7]; strain O, Gram-negative) [µg/mL] | MIC ([8]; strain P, Gram-negative) [µg/mL] | MIC ([9]; strain Q, Gram-negative) [µg/mL] | MIC (E. coli TolC; strain R, Gram-negative) [µg/mL] | MIC (E. coli MC1061; strain S, Gram-negative) [µg/mL] | MIC (S. enterica ATCC14028) [µg/mL] | MIC (B. subtilis 168) [µg/mL] | MIC (B. cereus ATCC11778) [µg/mL] | also measured |
| --- | --- | --- | --- | --- | --- | --- | --- | --- | --- | --- | --- | --- | --- | --- | --- | --- | --- | --- | --- | --- |
| CCCCCCCCCCCCCCSC[C@H]1O[C@H](O[C@@H]2[C@@H](O)[C@H](O[C@H]3O[C@H](CN)[C@@H](O)C[C@H]3N)[C@@H](N)C[C@H]2N)[C@H](O)[C@@H](N)[C@@H]1O [4e] | 9.4 (≈ 13.8 µM) | 9.4 (≈ 13.8 µM) | 2.3 (≈ 3.38 µM) | 2.3 (≈ 3.38 µM) | 4.7 (≈ 6.91 µM) | 0.3 (≈ 0.441 µM) | 18.8 (≈ 27.6 µM) | 75 (≈ 110 µM) | 9.4 (≈ 13.8 µM) | 4.7 (≈ 6.91 µM) | 4.7 (≈ 6.91 µM) | 4.7 (≈ 6.91 µM) | 2.3 (≈ 3.38 µM) | 4.7 (≈ 6.91 µM) | 4.7 (≈ 6.91 µM) | 4.7 (≈ 6.91 µM) | 37.5 (≈ 55.1 µM) |  |  | Time of kill: viable bacteria after incubation (S. mutans UA159 [10]): no viable bacteria remained; Time of kill: viable bacteria after incubation (S. pyogenes): no viable bacteria remained; Cell viability / YFP fluorescence by microscopy [11]: a significant drop in fluorescence; hemolysis of rat RBCs (rat RBCs; 18.8 μg/mL): 19.5 ± 0.3%; hemolysis of human RBCs (human RBCs; 18.8 μg/mL): 14.3 ± 1.7% |
| CCCCCCCCCCCCSCC1OC(OC2C(N)CC(N)C(OC3OC(CN)C(O)CC3N)C2O)C(O)C(N)C1O (stereo not drawn) [4d] |  | 37.5 (≈ 57.5 µM) |  |  |  |  |  |  | 18.8 (≈ 28.8 µM) | 18.8 (≈ 28.8 µM) |  |  |  |  |  | 18.8 (≈ 28.8 µM) |  |  |  |  |
| CCCCCCCCSCC1OC(OC2C(N)CC(N)C(OC3OC(CN)C(O)CC3N)C2O)C(O)C(N)C1O (stereo not drawn) [4b] | 150 (≈ 252 µM) | >150 | 150 (≈ 252 µM) | 150 (≈ 252 µM) | >150 | 75 (≈ 126 µM) | >150 | >150 | >150 | >150 | >150 | >150 | >150 | >150 | 9.4 (≈ 15.8 µM) | 75 (≈ 126 µM) | >150 | 37.5 (≈ 62.9 µM) | 150 (≈ 252 µM) | MIC (S. epidermidis AJCCM228; strain A, Gram-positive): 75 µg/mL (≈ 126 µM); MIC ([12]; strain T, Gram-negative): >150 µg/mL |
| CCCCCCCCCCCCCCS(=O)(=O)CC1OC(OC2C(N)CC(N)C(OC3OC(CN)C(O)CC3N)C2O)C(O)C(N)C1O (stereo not drawn) [6e] | 18.8 (≈ 26.4 µM) | 18.8 (≈ 26.4 µM) |  |  |  |  | 37.5 (≈ 52.7 µM) |  |  | 18.8 (≈ 26.4 µM) |  |  |  |  |  |  |  |  |  |  |
| CCCCCCCCCCCCS(=O)(=O)CC1OC(OC2C(N)CC(N)C(OC3OC(CN)C(O)CC3N)C2O)C(O)C(N)C1O (stereo not drawn) [6d] | 37.5 (≈ 54.8 µM) | 75 (≈ 110 µM) | 18.8 (≈ 27.5 µM) | 9.4 (≈ 13.7 µM) | >150 | 2.3 (≈ 3.36 µM) | 75 (≈ 110 µM) | 9.4 (≈ 13.7 µM) | 9.4 (≈ 13.7 µM) | 75 (≈ 110 µM) | >150 | >150 | >150 | >150 | 2.3 (≈ 3.36 µM) | 18.8 (≈ 27.5 µM) | >150 | 4.7 (≈ 6.87 µM) | 9.4 (≈ 13.7 µM) | MIC (S. epidermidis AJCCM228; strain A, Gram-positive): 9.4 µg/mL (≈ 13.7 µM); MIC ([12]; strain T, Gram-negative): >150 µg/mL |
| CCCCCCCCCCSCC1OC(OC2C(N)CC(N)C(OC3OC(CN)C(O)CC3N)C2O)C(O)C(N)C1O (stereo not drawn) [4c] | 37.5 (≈ 60.1 µM) | 75 (≈ 120 µM) |  |  |  |  |  |  | 37.5 (≈ 60.1 µM) | 75 (≈ 120 µM) |  |  |  |  |  |  |  | 37.5 (≈ 60.1 µM) | 18.8 (≈ 30.1 µM) |  |
| NC[C@H]1O[C@H](O[C@H]2[C@H](O)[C@@H](O[C@H]3O[C@H](CO)[C@@H](O)[C@H](N)[C@H]3O)[C@H](N)C[C@@H]2N)[C@H](N)C[C@@H]1O [TOB, tobramycin, reference compound] |  |  |  |  |  |  |  |  |  |  |  | >150 |  |  |  |  |  |  |  | MIC (S. epidermidis AJCCM228; Staphylococcus epidermidis, AJCCM228): 0.3 µg/mL (≈ 0.642 µM); MIC (S. aureus NorA; Staphylococcus aureus): 9.4 µg/mL (≈ 20.1 µM); MIC (MRSA; Staphylococcus aureus, MRSA): ≥ 150 µg/mL; MIC ([1]; Streptococcus pyogenes): 18.8 µg/mL (≈ 40.2 µM); MIC (S. mutans UA159 [2]; Streptococcus mutans, UA159): 75 µg/mL (≈ 160 µM); MIC (VRE; Enterococcus, VRE): ≥ 150 µg/mL; MIC (E. faecalis ATCC29212; Enterococcus faecalis, ATCC29212): 150 µg/mL (≈ 321 µM); MIC (E. coli BL21 (DE3); Escherichia coli): 4.7 µg/mL (≈ 10.1 µM); MIC ([6]; Escherichia coli): 9.4 µg/mL (≈ 20.1 µM); MIC ([7]; Escherichia coli): > 150 µg/mL; MIC ([8]; Escherichia coli): 150 µg/mL (≈ 321 µM); MIC ([9]; Escherichia coli): 18.8 µg/mL (≈ 40.2 µM); MIC (E. coli TolC; Escherichia coli): 4.7 µg/mL (≈ 10.1 µM); MIC (E. coli MC1061; Escherichia coli, MC1061): 9.4 µg/mL (≈ 20.1 µM); MIC ([12]; Shigella): 18.8 µg/mL (≈ 40.2 µM); Time of kill: viable bacteria after incubation (S. mutans UA159 [10]): almost no reduction in bacterial growth; Time of kill: viable bacteria after incubation (S. pyogenes): almost no reduction in bacterial growth; IC50 [13]: ~20 nM; hemolysis of rat RBCs (rat RBCs; 75 μg/mL): no measurable hemolysis; hemolysis of human RBCs (human RBCs; 75 μg/mL): no measurable hemolysis |
